# Data as given in US11998546B2, “Pharmaceutical combinations comprising a histone deacetylase inhibitor and epothilone and methods of use thereof” (ACETYLON PHARMACEUTICALS, INC., priority 2016, dated 2024).
# Assays:
# TOV-21G cells [1] = assay: Multipolar spindle formation in TOV-21G cells (DAPI, NuMA, α-tubulin staining); assay type: cell-based; conditions: 24 hours, 2 μM Compound B combined with 0.5 nM epothilone B vs single agents
# Procedure: The cells were then stained with DAPI (to label DNA) and antibodies for α-tubulin and the spindle pole marker NuMA.
# Cells in mitosis were then manually counted and scored for the presence of normal bipolar spindles or abnormal multipolar spindles. The frequency of cells with multipolar spindles was determined and scored in at least 100 cells from each treatment condition.
# TOV-21G cells [2] = assay: Cell proliferation of TOV-21G cells, crystal violet staining; assay type: cell-based; conditions: seven days, Compound B (2 μM) and/or epothilone B (4 nM)
# Procedure: The cells were then stained with crystal violet (hexamethyl pararosaniline chloride) dye. The crystal violet dye was extracted in 10% v/v acetic acid, and absorbance was measured in triplicate at a wavelength of 540 nm on a spectrophotometer (FIG. 2B).
compound,measurement,setting,value
"O=C(CCCCCCNC(=O)c1cnc(N(c2ccccc2)c2ccccc2Cl)nc1)NO [Compound B, 2-((2-chlorophenyl)(phenyl)amino)-N-(7-(hydroxyamino)-7-oxoheptyl)pyrimidine-5-carboxamide]",frequency of cells with multipolar mitotic spindles,TOV-21G cells [1],enhanced the multipolar spindle formation induced by epothilone
same,inhibition of tumor cell proliferation (crystal violet absorbance at 540 nm),TOV-21G cells [2],inhibition of tumor cell proliferation by Epotholine B was enhanced
